Measured values: patent US20140024683A1, “CHLORIDE CHANNEL AND CHLORIDE TRANSPORTER MODULATORS FOR THERAPY IN SMOOTH MUSCLE DISEASES” (priority 2011, published 2014)

Key:
[1] = tested on: guinea pig tracheal rings; experiment: Ex vivo airway smooth muscle force, prevention or relaxation of a contraction (Example 5); conditions: solo therapy; vs vehicle
Experimental: The chloride channel blocker NPPB and the chloride transporter blocker bumetanide were evaluated for their ability to prevent an initial contraction (n=5) (FIG. 23A) or to relax an existing contraction (n=6) (FIG. 23B).
As a proof of concept for chloride channel blockade in general, another chloride channel blocker, 5-nitro-2-(3-phenylpropylamino)-benzoic acid (NPPB) was used in an ex vivo guinea pig airway smooth muscle model.

[2] = tested on: guinea pig tracheal rings; experiment: Relaxation of the maintenance phase of a pre-established acetylcholine contraction, guinea pig tracheal rings; conditions: alone; pre-contracted with EC50 acetylcholine
Experimental: Animal protocols were approved by the Columbia University Animal Care and Use Committee. Male Hartley guinea pigs weighing approximately 400 g were anesthetized with intraperitoneal injection of sodium pentobarbital (100 mg/kg). Trachea were removed and transferred to ice cold Krebs-Henseleit (KH) buffer of the following composition (in mM): NaCl 118, KCl 5.6, CaCl2 0.5, MgSO4 0.24, NaH2PO4 1.3, NaHCO3 25, glucose 5.6, pH 7.4. Epithelial-denuded tracheal rings were prepared using a dissecting microscope. Epithelium was removed by gently passing cotton fibers through the lumen of the tracheal rings. The rings were suspended in 4 mL-water jacketed organ baths (37° C.: Radnoti Glass Technology, Monrovia, Calif.) and connected to a Grass FT03 force transducer (Grass Telefactor, West Warwick, R.I.) using silk sutures. The transducers were coupled to the computer with BioPac hardware and data was collected using Acqknowledge 7.3.3 software (BioPac Systems, Goleta, Calif.). KH buffer was bubbled with a gas mixture of 95% oxygen and 5% carbon dioxide and buffer was exchanged every 15 minutes for 1 hour during equilibration of tracheal rings at 1 g resting tension. […].
Chloride channel blockers were then tested against the plateau phase of an established acetylcholine contraction. […]

[3] = tested on: guinea pig tracheal rings; experiment: Organ bath muscle force, TEA-induced contraction of guinea pig tracheal rings (Examples 1, 4, 13); conditions: 10 mM TEA; 100 μM niflumic acid
Experimental: Epithelial denuded guinea pig tracheal rings were suspended in organ baths under 1 g resting tension with continuous digital recordings of muscle force. In separate studies, guinea pig airway smooth muscle cells were enzymatically dispersed and cultured.
Human muscle tissue was acquired from excess lung airways trimmed during surgery from healthy lung transplant donors. Acquired tissue was stored overnight at […]. Airway smooth muscle contractions measured ex vivo in organ baths were performed as previously described (Gallos et al., 2008; Gallos et al., 2009, Gallos et al., 2011; Gleason et al., 2010; Yim et al., 2011; Mitzuta et al., 2008). Closed guinea pig tracheal rings or strips of human airway smooth muscle (tracheal or main stem bronchus) were suspended in organ baths, which had 95% oxygen constantly perfusing through Dulbecco's Modified Eagle Medium. Rings were cut on the cartilaginous borders of the smooth muscle. The epithelial layer was dissected under microscopic assistance. Briefly, tissues were suspended in a water-jacketed (37° C.) 2-ml organ bath (Radnoti Glass Technology, Monrovia, Calif.) and attached to a Grass FT03 force transducer (Grass Telefactor, West Warwick, R.I.) coupled to a computer via BioPac hardware and Acqknowledge 7.3.3 software (Biopac Systems, Goleta, Calif.). Kreb's-Henseleit (KH) buffer was continuously bubbled with 95% oxygen and 5% carbon dioxide and tissues were allowed to equilibrate at 1 g (guinea pig) or 1.5 g (human) isotonic force for 1 hour with fresh KH buffer changes every 15 minutes.
Following equilibration, in guinea pig experiments, the capsaicin analog N-vanillylnonanamide (10 μM final) was added to the organ baths to first activate and then deplete nonadrenergic, noncholinergic nerves. […]. In experiments with human tissue, no vanillylnonanamide pretreatment was done. To avoid bias between treatment groups, tissues were contracted to individually calculated EC50 values for acetylcholine and tissues with similar Emax values were randomly assigned to treatments within individual experiments. Following extensive KH buffer changes (8-9 times) tissues were allowed to stabilize at isotonic resting tension (about 1.0 g). To remove confounding effects of other procontractile pathways, each bath received a complement of antagonists 20 minutes prior to subsequent contractile challenge. The antagonists included pyrilamine (10 μM; H1 histamine receptor antagonist), and tetrodotoxin (1 μM; blocker of endogenous cholinergic or C-fiber neuronal effects) in guinea pig experiments or pyrilamine and 10 μM MK571 (leukotriene receptor antagonist) in human tissue experiments. […]
Airway smooth muscle contractions measured ex vivo in organ baths were performed as set forth above. […]

[4] = tested on: human airway smooth muscle cells; experiment: FLIPR potentiometric dye membrane potential assay (Examples 9, 12); type: cell-based; conditions: 100 μM
Experimental: To determine whether blockade of CaCCs or NKCCs induce membrane potential changes in cultured human airway smooth muscle cells, the FLIPR in vitro fluorescent dye assay (Molecular Devices) was used as described by Wafford et al. (2009). Briefly, human airway smooth muscle cells were grown to 100% confluence in 96-well black-walled plates and were washed with warmed (37° C.) normal-chloride buffer [consisting of (in mM) 130 sodium chloride, 2 CaCl2, 1 MgCl2, 10 D-glucose, and 10 HEPES, pH 7.4] four times. A stock solution (100% dye) of FLIPR blue dye (Molecular Devices) was prepared by reconstitution of 1 vial (125 mg) with 100 ml of the normal-chloride buffer (assay buffer). A 50% working stock was prepared by further diluting the reconstituted blue dye 1:1 with assay buffer and was used to load cells (90 μl/well) over 20 minutes at 37° C. All reagents were dissolved in assay buffer. Baseline fluorescence was measured for 3 minutes prior to the first control additions (assay buffer). […] The fluorescence produced by membrane potential change following solution additions was quantified after subtracting changes induced by assay buffer alone.

Row | Structure (SMILES) | relaxation of an existing contraction [1] | relaxation of established acetylcholine contraction [2] | relaxation of TEA-induced contraction [3] | membrane potential change (FLIPR) [4] | membrane potential change (FLIPR) ([4]; listed as NFA)
1 | CCCCNc1cc(C(=O)O)cc(S(N)(=O)=O)c1Oc1ccccc1 [bumetanide] | effective in relaxing an existing contraction | significantly relaxed an acetylcholine contraction |  |  | 
2 | O=C(O)c1cccnc1Nc1cccc(C(F)(F)F)c1 [niflumic acid] |  |  | 82.5% | hyperpolarized the cell membrane | hyperpolarizes the airway smooth muscle cell plasma membrane
